Results from the NIST ThermoML archive (doi:10.1016/j.jct.2005.06.015).

Assays:
[1] = 101 kPa, Liquid
[2] = refractive index (Na D-line) (dimensionless); details: 101.33 kPa, Liquid, Standard Abbe refractometry
[3] = refractive index (Na D-line) (dimensionless); xn = mol fraction of the nth substance listed; details: 101 kPa, Liquid, Standard Abbe refractometry
[4] = xn = mol fraction of the nth substance listed; details: 101 kPa, Liquid

ClC(Cl)C(Cl)Cl [1,1,2,2-tetrachloroethane]
Details	mass density, [1] [kg/m3]	refractive index, [2]
293.15 K	1594.27	1.49387
303.15 K	1574.85	1.48887

ClC(Cl)C(Cl)Cl [1,1,2,2-tetrachloroethane] + CCCCCCCCCCO
Details	mass density, [4] [kg/m3]	refractive index, [3]
293.15 K, x1 = 0.1023	874.88	1.44019
293.15 K, x1 = 0.2004	922	1.44342
293.15 K, x1 = 0.3006	974.95	1.44704
293.15 K, x1 = 0.4005	1033.5	1.45108
293.15 K, x1 = 0.5009	1099.29	1.45575
293.15 K, x1 = 0.6001	1172.37	1.46097
293.15 K, x1 = 0.6999	1255.81	1.46711
293.15 K, x1 = 0.8	1351.62	1.47434
293.15 K, x1 = 0.901	1464.04	1.48303
293.15 K, x1 = 1	1594.27	1.49387
303.15 K, x1 = 0.1023	867.03	1.43656
303.15 K, x1 = 0.2004	913.42	1.43969
303.15 K, x1 = 0.3006	965.57	1.44313
303.15 K, x1 = 0.4005	1023.2	1.44706
303.15 K, x1 = 0.5009	1087.89	1.45152
303.15 K, x1 = 0.6001	1159.72	1.45665
303.15 K, x1 = 0.6999	1241.75	1.46263
303.15 K, x1 = 0.8	1336.02	1.46974
303.15 K, x1 = 0.901	1446.7	1.47826
303.15 K, x1 = 1	1574.85	1.48887

ClC(Cl)C(Cl)Cl [1,1,2,2-tetrachloroethane] + CCCCCCCCO
Details	mass density, [4] [kg/m3]	refractive index, [3]
293.15 K, x1 = 0.1028	879.91	1.43403
293.15 K, x1 = 0.1967	933.27	1.43826
293.15 K, x1 = 0.2997	995.8	1.44321
293.15 K, x1 = 0.4005	1061.47	1.44845
293.15 K, x1 = 0.501	1132.1	1.45416
293.15 K, x1 = 0.6	1207.5	1.46034
293.15 K, x1 = 0.6999	1290.57	1.46723
293.15 K, x1 = 0.7998	1381.66	1.47492
293.15 K, x1 = 0.9007	1483.42	1.48379
293.15 K, x1 = 1	1594.27	1.49387
303.15 K, x1 = 0.1028	872.01	1.43011
303.15 K, x1 = 0.1967	924.42	1.43419
303.15 K, x1 = 0.2997	985.92	1.43892
303.15 K, x1 = 0.4005	1050.64	1.44404
303.15 K, x1 = 0.501	1120.29	1.44968
303.15 K, x1 = 0.6	1194.6	1.45579
303.15 K, x1 = 0.6999	1276.31	1.46262
303.15 K, x1 = 0.7998	1365.71	1.47026
303.15 K, x1 = 0.9007	1465.56	1.47898
303.15 K, x1 = 1	1574.85	1.48887

ClC(Cl)C(Cl)Cl [1,1,2,2-tetrachloroethane] + CCCCCCCO
Details	mass density, [4] [kg/m3]	refractive index, [3]
293.15 K, x1 = 0.1022	883.03	1.42952
293.15 K, x1 = 0.1995	943.76	1.43494
293.15 K, x1 = 0.3002	1009.72	1.4406
293.15 K, x1 = 0.4008	1079.02	1.44661
293.15 K, x1 = 0.5001	1151.23	1.45297
293.15 K, x1 = 0.599	1227.43	1.45976
293.15 K, x1 = 0.6996	1310.04	1.46717
293.15 K, x1 = 0.7999	1398.24	1.47525
293.15 K, x1 = 0.9015	1494.17	1.48421
293.15 K, x1 = 1	1594.27	1.49387
303.15 K, x1 = 0.1022	875.27	1.42581
303.15 K, x1 = 0.1995	934.97	1.43106
303.15 K, x1 = 0.3002	999.87	1.43653
303.15 K, x1 = 0.4008	1068.12	1.44244
303.15 K, x1 = 0.5001	1139.25	1.44861
303.15 K, x1 = 0.599	1214.28	1.45521
303.15 K, x1 = 0.6996	1295.52	1.46254
303.15 K, x1 = 0.7999	1382.11	1.4705
303.15 K, x1 = 0.9015	1476.3	1.47937
303.15 K, x1 = 1	1574.85	1.48887

ClC(Cl)C(Cl)Cl [1,1,2,2-tetrachloroethane] + CCCCCCO
Details	mass density, [4] [kg/m3]	refractive index, [3]
293.15 K, x1 = 0.1003	886.07	1.4247
293.15 K, x1 = 0.2011	955.51	1.43135
293.15 K, x1 = 0.3006	1025.9	1.438
293.15 K, x1 = 0.4004	1098.46	1.44486
293.15 K, x1 = 0.5	1173.27	1.45201
293.15 K, x1 = 0.6009	1251.57	1.45957
293.15 K, x1 = 0.7002	1331.64	1.46735
293.15 K, x1 = 0.8004	1415.64	1.47556
293.15 K, x1 = 0.9011	1503.8	1.48444
293.15 K, x1 = 1	1594.27	1.49387
303.15 K, x1 = 0.1003	877.89	1.42076
303.15 K, x1 = 0.2011	946.24	1.42723
303.15 K, x1 = 0.3006	1015.59	1.43378
303.15 K, x1 = 0.4004	1087.1	1.4405
303.15 K, x1 = 0.5	1160.79	1.4475
303.15 K, x1 = 0.6009	1237.85	1.45495
303.15 K, x1 = 0.7002	1316.58	1.46264
303.15 K, x1 = 0.8004	1399.12	1.47082
303.15 K, x1 = 0.9011	1485.78	1.4796
303.15 K, x1 = 1	1574.85	1.48887

ClC(Cl)C(Cl)Cl [1,1,2,2-tetrachloroethane] + CCCCCO
Details	mass density, [4] [kg/m3]	refractive index, [3]
293.15 K, x1 = 0.1015	892.95	1.41801
293.15 K, x1 = 0.2006	969.17	1.42587
293.15 K, x1 = 0.3019	1046.97	1.43392
293.15 K, x1 = 0.4001	1122.53	1.44184
293.15 K, x1 = 0.5005	1199.96	1.45
293.15 K, x1 = 0.5995	1276.74	1.45825
293.15 K, x1 = 0.7005	1355.55	1.46691
293.15 K, x1 = 0.8008	1434.56	1.4757
293.15 K, x1 = 0.9001	1513.69	1.48463
293.15 K, x1 = 1	1594.27	1.49387
303.15 K, x1 = 0.1015	884.5	1.41395
303.15 K, x1 = 0.2006	959.53	1.42166
303.15 K, x1 = 0.3019	1036.17	1.42959
303.15 K, x1 = 0.4001	1110.64	1.43735
303.15 K, x1 = 0.5005	1186.94	1.44547
303.15 K, x1 = 0.5995	1262.57	1.45363
303.15 K, x1 = 0.7005	1340.1	1.46218
303.15 K, x1 = 0.8008	1417.76	1.47093
303.15 K, x1 = 0.9001	1495.54	1.47979
303.15 K, x1 = 1	1574.85	1.48887

CCCCCCCCCCO [decan-1-ol]
Details	mass density, [1] [kg/m3]	refractive index, [2]
293.15 K	829.84	1.43694
303.15 K	822.83	1.43364

CCCCCCCCCCO [decan-1-ol] + ClC(Cl)C(Cl)Cl
x2 = 0
Details	mass density, [4] [kg/m3]	refractive index, [3]
293.15 K	829.84	1.43694
303.15 K	822.83	1.43364

CCCCCCCO [heptan-1-ol]
Details	mass density, [1] [kg/m3]	refractive index, [2]
293.15 K	822.14	1.42397
303.15 K	815.41	1.42047

CCCCCCCO [heptan-1-ol] + ClC(Cl)C(Cl)Cl
x2 = 0
Details	mass density, [4] [kg/m3]	refractive index, [3]
293.15 K	822.14	1.42397
303.15 K	815.41	1.42047

CCCCCCO [hexan-1-ol]
Details	mass density, [1] [kg/m3]	refractive index, [2]
293.15 K	818.72	1.41807
303.15 K	811.73	1.41423

CCCCCCO [hexan-1-ol] + ClC(Cl)C(Cl)Cl
x2 = 0
Details	mass density, [4] [kg/m3]	refractive index, [3]
293.15 K	818.72	1.41807
303.15 K	811.73	1.41423

CCCCCCCCO [octan-1-ol]
Details	mass density, [1] [kg/m3]	refractive index, [2]
293.15 K	825	1.42941
303.15 K	818.09	1.42563

CCCCCCCCO [octan-1-ol] + ClC(Cl)C(Cl)Cl
x2 = 0
Details	mass density, [4] [kg/m3]	refractive index, [3]
293.15 K	825	1.42941
303.15 K	818.09	1.42563

CCCCCO [pentan-1-ol]
Details	mass density, [1] [kg/m3]	refractive index, [2]
293.15 K	814.72	1.40976
303.15 K	807.6	1.40592

CCCCCO [pentan-1-ol] + ClC(Cl)C(Cl)Cl
x2 = 0
Details	mass density, [4] [kg/m3]	refractive index, [3]
293.15 K	814.72	1.40976
303.15 K	807.6	1.40592
